Consider 35 compounds from patent US20230339891A1, “URACIL DERIVATIVES AS MER-AXL INHIBITORS” (BRISTOL-MYERS SQUIBB COMPANY, priority 2018, published 2023).

For one experiment, the target named is GST-MERTK 578-872 (Homo sapiens (Human), UniProt Q12866). The experiment can be described thus: MERTK kinase homogeneous time resolved fluorescence (HTRF) binding assay. The note with it: 1 nM kinase, fluorescein-labeled kinase tracer at Kd, 60 minutes at room temperature; read-out: Mer HTRF IC50. The method, then:
(§1) MERTK, AXL, TYRO3 Kinase Homogeneous Time Resolved Fluorescence (HTRF) Assay
(§2) Assays were performed in black, flat-bottom, 1536-well plates. The reactions were incubated at room temperature for 60 minutes, following which the HTRF signals, ratio of fluorescence intensities at emission wavelengths for fluorescein acceptor (520 nm) and terbium donor (495 nm), the 520/495 ratio, were measured on the Envision Plate reader. Inhibition data were calculated from the 520/495 ratio generated by the no protein control reactions for 100% inhibition and vehicle-only reactions for 0% inhibition, and dose response curves generated to determine the concentration required for inhibiting 50% of the HTRF signal (IC50). Compounds were dissolved at 10 mM in dimethylsulfoxide (DMSO) and evaluated at eleven concentrations.

A further experiment concerns the target HIS-AXL 473-End (Homo sapiens (Human), UniProt P30530). Kind of experiment: AXL kinase homogeneous time resolved fluorescence (HTRF) binding assay. The conditions noted are these: 1 nM kinase, fluorescein-labeled kinase tracer at Kd, 60 minutes at room temperature. The method, then:
as §1, §2
A general note: Time-resolved FRET reads energy transfer from a long-lived donor to a nearby acceptor.

Chain of HIS-AXL 473-End (P30530 473-894): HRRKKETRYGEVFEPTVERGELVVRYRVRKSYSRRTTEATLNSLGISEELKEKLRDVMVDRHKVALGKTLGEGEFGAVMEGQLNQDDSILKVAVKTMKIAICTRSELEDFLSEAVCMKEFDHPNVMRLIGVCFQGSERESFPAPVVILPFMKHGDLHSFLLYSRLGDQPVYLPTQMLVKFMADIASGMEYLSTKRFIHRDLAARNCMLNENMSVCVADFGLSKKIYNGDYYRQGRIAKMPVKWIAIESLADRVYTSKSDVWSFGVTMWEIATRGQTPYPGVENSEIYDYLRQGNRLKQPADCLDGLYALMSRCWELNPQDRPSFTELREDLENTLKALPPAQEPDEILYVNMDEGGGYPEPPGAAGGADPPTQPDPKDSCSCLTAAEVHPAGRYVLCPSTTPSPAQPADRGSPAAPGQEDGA
Chain of GST-MERTK 578-872 (Q12866 578-872): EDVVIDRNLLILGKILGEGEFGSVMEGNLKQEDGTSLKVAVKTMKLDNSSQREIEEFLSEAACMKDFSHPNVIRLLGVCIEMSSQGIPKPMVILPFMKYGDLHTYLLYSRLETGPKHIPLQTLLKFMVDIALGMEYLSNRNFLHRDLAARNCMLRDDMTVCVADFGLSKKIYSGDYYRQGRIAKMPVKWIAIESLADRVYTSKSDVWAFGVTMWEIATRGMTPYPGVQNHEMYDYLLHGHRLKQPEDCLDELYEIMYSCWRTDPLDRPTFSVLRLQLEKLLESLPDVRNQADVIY

Usually IC50 stands for the concentration that gives 50% inhibition. In the case of `Cc1cc(Nc2cc(Oc3ccc(NC(=O)c4cn(C(C)C)c(=O)n(-c5ccc(F)cc5)c4=O)cc3F)ccn2)nc(N2CCN(S(C)(=O)=O)CC2)c1` [Example 136, N-{3-fluoro-4-[(2-{[6-(4-methanesulfonylpiperazin-1-yl)-4-methylpyridin-2-yl]amino}pyridin-4-yl)oxy]phenyl}-3-(4-fluorophenyl)-2,4-dioxo-1-(propan-2-yl)-1,2,3,4-tetrahydropyrimidine-5-carboxamide], the half-maximal inhibitory concentration (IC50) on GST-MERTK 578-872 is 3.9 nM; at HIS-AXL 473-End it was 1040 nM.

In the case of `CC(C)n1cc(C(=O)Nc2ccc(Oc3ccnc(Nc4ccc(S(=O)(=O)N(C)C)cn4)c3)c(F)c2)c(=O)n(-c2ccc(F)cc2)c1=O` [Example 20], the IC50 at GST-MERTK 578-872 was determined as 12 nM; at HIS-AXL 473-End, 4.7 nM.

`CC(C)n1cc(C(=O)Nc2ccc(Oc3ccnc(Nc4ncc(Cl)cc4F)c3)c(F)c2)c(=O)n(-c2ccc(F)cc2)c1=O` [Example 3]: the results for the IC50 on GST-MERTK 578-872 and on HIS-AXL 473-End were 59 nM and 1730 nM, respectively.

Regarding `CC(C)n1cc(C(=O)Nc2ccc(Oc3ccnc(Nc4ccc(C#N)cn4)c3)c(F)c2)c(=O)n(-c2ccc(F)cc2)c1=O` [Example 1, N-[4-({2-[(5-cyanopyridin-2-yl)amino]pyridin-4-yl}oxy)-3-fluorophenyl]-3-(4-fluorophenyl)-2,4-dioxo-1-(propan-2-yl)-1,2,3,4-tetrahydropyrimidine-5-carboxamide], the figures for the IC50 on GST-MERTK 578-872 and at HIS-AXL 473-End were 14 nM and 2.9 nM, respectively.

For the compound `CC(C)n1cc(C(=O)Nc2ccc(Oc3ccnc(Nc4ccc(S(=O)(=O)N5CC(O)C5)cn4)c3)c(F)c2)c(=O)n(-c2ccc(F)cc2)c1=O` [Example 82], the IC50 worked out at 8.8 nM at GST-MERTK 578-872 and 256 nM on HIS-AXL 473-End.

Take `CC(C)n1cc(C(=O)Nc2ccc(Oc3ccnc(Nc4cccc(C(F)(F)F)n4)c3)c(F)c2)c(=O)n(-c2ccc(F)cc2)c1=O` [Example 9]: the values for the IC50 on GST-MERTK 578-872 and at HIS-AXL 473-End were 16 nM and 29 nM, respectively.

Consider `COC(=O)N1CCN(c2nc(Nc3cc(Oc4ccc(NC(=O)c5cn(C(C)C)c(=O)n(-c6ccc(F)cc6)c5=O)cc4F)ccn3)ccc2C(F)(F)F)CC1` [Example 139], for which the IC50 worked out at 11 nM at GST-MERTK 578-872 and 77 nM at HIS-AXL 473-End.

In the case of `CCc1cnc(Nc2cc(Oc3ccc(NC(=O)c4cn(C(C)C)c(=O)n(-c5ccc(F)cc5)c4=O)cc3F)ccn2)cn1` [Example 28], the IC50 at GST-MERTK 578-872 stood at 20 nM; on HIS-AXL 473-End, 7.4 nM.

On to `CC(C)n1cc(C(=O)Nc2ccc(Oc3ccnc(Nc4ccc(C(=O)NCC(C)(C)O)cn4)c3)c(F)c2)c(=O)n(-c2ccc(F)cc2)c1=O` [Example 92, N-(3-Fluoro-4-{[2-({5-[(2-hydroxy-2-methylpropyl)carbamoyl]pyridin-2-yl}amino)pyridin-4-yl]oxy}phenyl)-3-(4-fluorophenyl)-2,4-dioxo-1-(propan-2-yl)-1,2,3,4-tetrahydropyrimidine-5-carboxamide], for which the figures for the concentration for half-maximal inhibition (IC50) at GST-MERTK 578-872 and on HIS-AXL 473-End were 1.9 nM and 0.4 nM, respectively.

With `CC(C)n1cc(C(=O)Nc2ccc(Oc3ccnc(Nc4ccc(-c5nccs5)cn4)c3)c(F)c2)c(=O)n(-c2ccc(F)cc2)c1=O` [Example 23], the IC50 on GST-MERTK 578-872 is 55 nM; on HIS-AXL 473-End, 31 nM.

Consider `CC(C)n1cc(C(=O)Nc2ccc(Oc3ccnc(Nc4cc(N5CCOCC5)ccn4)c3)c(F)c2)c(=O)n(-c2ccc(F)cc2)c1=O` [Example 22], for which the IC50 on GST-MERTK 578-872 worked out at 49 nM; on HIS-AXL 473-End it was 8.9 nM.

Regarding `Cc1cnc(Nc2cc(Oc3ccc(NC(=O)c4cn(C(C)C)c(=O)n(-c5ccc(F)cc5)c4=O)cc3F)ccn2)cn1` [Example 27], the figures for the IC50 at GST-MERTK 578-872 and on HIS-AXL 473-End were 19 nM and 6.8 nM, respectively.

`CC(C)n1cc(C(=O)Nc2ccc(Oc3ccnc(Nc4ccc(S(=O)(=O)N(C)C)cn4)c3)c(F)c2)c(=O)n(-c2ccc(Cl)cc2)c1=O` [Example 66]: the results for the IC50 on GST-MERTK 578-872 and at HIS-AXL 473-End were 29 nM and 31 nM, respectively.

Regarding `CC(C)n1cc(C(=O)Nc2ccc(Oc3ccnc(Nc4ccc(C#N)c(N5CCC(S(C)(=O)=O)CC5)n4)c3)c(F)c2)c(=O)n(-c2ccc(F)cc2)c1=O` [Example 123], the IC50 is 1.8 nM on GST-MERTK 578-872 and 1.4 nM on HIS-AXL 473-End.

In the case of `CC(C)n1cc(C(=O)Nc2ccc(Oc3ccnc(Nc4ccc(S(=O)(=O)N(C)C)cn4)c3)c(F)c2)c(=O)n(-c2cccc(F)c2)c1=O` [Example 68], the results for the IC50 on GST-MERTK 578-872 and at HIS-AXL 473-End were 20 nM and 7.1 nM, respectively.

As to `CC(C)Cn1c(=O)c(C(=O)Nc2ccc(Oc3ccnc(Nc4ccnc(N5CCCC5)n4)c3)c(F)c2)cn(C(C)C)c1=O` [Example 107], the IC50 at GST-MERTK 578-872 is 5.4 nM; at HIS-AXL 473-End, 11 nM.

Turning to `CC(C)n1cc(C(=O)Nc2ccc(Oc3ccnc(Nc4ccc(C(=O)N(C)C)cn4)c3)c(F)c2)c(=O)n(-c2ccc(F)cc2)c1=O` [Example 17], the IC50 worked out at 1.9 nM on GST-MERTK 578-872 and 2.7 nM on HIS-AXL 473-End.

As to `CC(C)n1cc(C(=O)Nc2ccc(Oc3ccnc(Nc4ccnc(N5CCCC5)n4)c3)c(F)c2)c(=O)n(Cc2ccccc2)c1=O` [Example 106], the IC50 at GST-MERTK 578-872 and on HIS-AXL 473-End was 8.2 nM throughout.

On to `CC(C)n1cc(C(=O)Nc2ccc(Oc3ccnc(Nc4ccc(C(=O)NCC(F)F)cn4)c3)c(F)c2)c(=O)n(-c2ccc(F)cc2)c1=O` [Example 95], for which the IC50 was found to be 4.3 nM on GST-MERTK 578-872 and 0.8 nM on HIS-AXL 473-End.

For `CC(C)n1cc(C(=O)Nc2ccc(Oc3ccnc(Nc4ccc(C#N)c(N5CCN(S(C)(=O)=O)[C@H](C)C5)n4)c3)c(F)c2)c(=O)n(-c2ccc(F)cc2)c1=O` [Example 125], the IC50 was determined as 2.2 nM on GST-MERTK 578-872 and 1.3 nM on HIS-AXL 473-End.

As for `CC(C)n1cc(C(=O)Nc2ccc(Oc3ccnc(Nc4ccc(S(N)(=O)=O)cn4)c3)c(F)c2)c(=O)n(-c2ccc(F)cc2)c1=O` [Example 19], the IC50 at GST-MERTK 578-872 came to 4.4 nM; on HIS-AXL 473-End, 1.6 nM.

Regarding `COC(=O)N1CCN(c2nc(Nc3cc(Oc4ccc(NC(=O)c5cn(C(C)C)c(=O)n(-c6ccc(F)cc6)c5=O)cc4F)ccn3)ccc2C#N)CC1` [Example 119], the IC50 on GST-MERTK 578-872 was determined as 1.5 nM; on HIS-AXL 473-End, 4.2 nM.

For the compound `CC(C)n1cc(C(=O)Nc2ccc(Oc3ccnc(Nc4ccnc(N5CCCC5)n4)c3)c(F)c2)c(=O)n(C2CCCCC2)c1=O` [Example 109], the IC50 on GST-MERTK 578-872 came out at 70 nM; on HIS-AXL 473-End, 62 nM.

Regarding `CC(C)n1cc(C(=O)Nc2ccc(Oc3ccnc(Nc4ccc(C#N)c(N5CCC(S(C)(=O)=O)C5)n4)c3)c(F)c2)c(=O)n(-c2ccc(F)cc2)c1=O` (stereo not shown) [Example 124], the IC50 was 2.9 nM at GST-MERTK 578-872 and 2 nM at HIS-AXL 473-End.

`CC(C)n1cc(C(=O)Nc2ccc(Oc3ccnc(Nc4ccc(S(=O)(=O)N(C)C)cn4)c3)cc2)c(=O)n(-c2ccc(F)cc2)c1=O` [Example 74, N-{4-[(2-{[5-(dimethylsulfamoyl)pyridin-2-yl]amino}pyridin-4-yl)oxy]phenyl}-3-(4-fluorophenyl)-2,4-dioxo-1-(propan-2-yl)-1,2,3,4-tetrahydropyrimidine-5-carboxamide]: the IC50 at GST-MERTK 578-872 amounted to 1440 nM; at HIS-AXL 473-End, 2.9 nM.

`CC(C)n1cc(C(=O)Nc2ccc(Oc3ccnc(Nc4ccc(C#N)c(N5CCC(O)(C(F)(F)F)CC5)n4)c3)c(F)c2)c(=O)n(-c2ccc(F)cc2)c1=O` [Example 122]: the IC50 at GST-MERTK 578-872 was found to be 6 nM; at HIS-AXL 473-End, 9.8 nM.

On to `CN(C)S(=O)(=O)c1ccc(Nc2cc(Oc3ccc(NC(=O)c4cn(C5CC5)c(=O)n(-c5ccccc5)c4=O)cc3F)ccn2)nc1` [Example 43], for which the IC50 at GST-MERTK 578-872 came out at 21 nM; on HIS-AXL 473-End, 222 nM.

Regarding `CC(C)n1cc(C(=O)Nc2ccc(Oc3ccnc(Nc4ccc(N5CCC(NC(=O)OC(C)(C)C)C5=O)cn4)c3)c(F)c2)c(=O)n(-c2ccc(F)cc2)c1=O` (stereo not shown) [Example 89], the values for the IC50 at GST-MERTK 578-872 and on HIS-AXL 473-End were 6.6 nM and 4.4 nM, respectively.

Consider `Cc1cnc(Nc2cc(Oc3ccc(NC(=O)c4cn(C(C)C)c(=O)n(-c5ccc(F)cc5)c4=O)cc3F)ccn2)cc1C` [Example 6], for which the IC50 is 37 nM on GST-MERTK 578-872 and 7.9 nM on HIS-AXL 473-End.

`CC(C)n1cc(C(=O)Nc2ccc(Oc3ccnc(Nc4nc(N5CCN(S(C)(=O)=O)CC5)ccc4F)c3)c(F)c2)c(=O)n(-c2ccc(F)cc2)c1=O` [Example 135, N-{3-fluoro-4-[(2-{[3-fluoro-6-(4-methanesulfonylpiperazin-1-yl)pyridin-2-yl]amino}pyridin-4-yl)oxy]phenyl}-3-(4-fluorophenyl)-2,4-dioxo-1-(propan-2-yl)-1,2,3,4-tetrahydropyrimidine-5-carboxamide]: the IC50 was determined as 1 nM on GST-MERTK 578-872 and 1.1 nM on HIS-AXL 473-End.

In the case of `CC(C)n1cc(C(=O)Nc2ccc(Oc3ccnc(Nc4ccc(C#N)c(N5CCC(O)CC5)n4)c3)c(F)c2)c(=O)n(-c2ccc(F)cc2)c1=O` [Example 120], the results for the IC50 on GST-MERTK 578-872 and on HIS-AXL 473-End were 1.6 nM and 1.1 nM, respectively.

Turning to `CC(C)n1cc(C(=O)Nc2ccc(Oc3ccnc(Nc4ccc(S(=O)(=O)N(C)C)cn4)c3)c(F)c2)c(=O)n(-c2ccccc2)c1=O` [Example 42], the concentration for half-maximal inhibition (IC50) came out at 21 nM at GST-MERTK 578-872 and 7.4 nM on HIS-AXL 473-End.

Turning to `CC(C)n1cc(C(=O)Nc2ccc(Oc3ccnc(Nc4ccc(C#N)c(N5CC[C@H](O)C5)n4)c3)c(F)c2)c(=O)n(-c2ccc(F)cc2)c1=O` [Example 118], the values for the IC50 at GST-MERTK 578-872 and on HIS-AXL 473-End were 1.5 nM and 1.4 nM, respectively.

With `CC(=O)c1cccc(-n2c(=O)c(C(=O)Nc3ccc(Oc4ccnc(Nc5ccc(S(=O)(=O)N(C)C)cn5)c4)c(F)c3)cn(C(C)C)c2=O)c1` [Example 73], the results for the IC50 on GST-MERTK 578-872 and on HIS-AXL 473-End were 24 nM and 59 nM, respectively.

In the case of `CC(C)n1cc(C(=O)Nc2ccc(Oc3ccnc(Nc4ccc(C(F)(F)F)c(N5CCN(S(=O)(=O)N(C)C)CC5)n4)c3)c(F)c2)c(=O)n(-c2ccc(F)cc2)c1=O` [Example 141], the IC50 on GST-MERTK 578-872 was 17 nM; on HIS-AXL 473-End, 14700 nM.
